Test results from PubChem BioAssay (NCI).
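Five concentrations, 48 hours, 96-well plates. At the GI50, growth is halved. At the TGI there is no net growth.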

How the values were obtained:
Experiment in all cases: NCI-60 cell line screen, 48 h
SF-539 CNS = test system: SF-539 CNS
U251 CNS = test system: U251 CNS
A549 NSCLC = test system: A549 NSCLC
CCRF-CEM leukemia = test system: CCRF-CEM leukemia
EKVX NSCLC = test system: EKVX NSCLC
NCI-H460 lung = test system: NCI-H460 lung
OVCAR-5 ovarian = test system: OVCAR-5 ovarian
NCI-H522 lung = test system: NCI-H522 lung
COLO 205 colon = test system: COLO 205 colon
UACC-257 melanoma = test system: UACC-257 melanoma
HL-60(TB) leukemia = test system: HL-60(TB) leukemia
NCI/ADR-RES ovarian = test system: NCI/ADR-RES ovarian
HCC-2998 colon = test system: HCC-2998 colon
ACHN renal = test system: ACHN renal
OVCAR-8 ovarian = test system: OVCAR-8 ovarian
SK-MEL-5 melanoma = test system: SK-MEL-5 melanoma
SW-620 colon = test system: SW-620 colon
NCI-H226 lung = test system: NCI-H226 lung
UACC-62 melanoma = test system: UACC-62 melanoma
OVCAR-3 ovarian = test system: OVCAR-3 ovarian
SNB-19 CNS = test system: SNB-19 CNS
SK-MEL-28 melanoma = test system: SK-MEL-28 melanoma
RPMI-8226 leukemia = test system: RPMI-8226 leukemia
SK-MEL-2 melanoma = test system: SK-MEL-2 melanoma
A498 renal = test system: A498 renal
SF-268 CNS = test system: SF-268 CNS
LOX IMVI melanoma = test system: LOX IMVI melanoma
CAKI-1 renal = test system: CAKI-1 renal
UO-31 renal = test system: UO-31 renal

## CCc1ccc(C(=O)/C=C/C23c4ccccc4C(c4ccccc42)C2C(=O)NC(=O)C23)cc1 (configuration not stated)
SF-539 CNS
  GI50: 1690 nM
  TGI: 3220 nM
U251 CNS
  GI50: 1750 nM
  TGI: 3170 nM
A549 NSCLC
  GI50: 2070 nM
  TGI: 5540 nM
CCRF-CEM leukemia
  GI50: 2660 nM
  TGI: 11000 nM
EKVX NSCLC
  GI50: 1600 nM
  TGI: 3560 nM
NCI-H460 lung
  GI50: 2120 nM
  TGI: 5090 nM
OVCAR-5 ovarian
  GI50: 2230 nM
  TGI: 5570 nM
NCI-H522 lung
  GI50: 1960 nM
  TGI: 4890 nM
COLO 205 colon
  GI50: 2130 nM
  TGI: 4020 nM
UACC-257 melanoma
  GI50: 1900 nM
  TGI: 4150 nM
HL-60(TB) leukemia
  GI50: 69.7 nM
  TGI: 1930 nM
NCI/ADR-RES ovarian
  GI50: 2150 nM
  TGI: 4730 nM
HCC-2998 colon
  GI50: 2090 nM
  TGI: 3650 nM
ACHN renal
  GI50: 3350 nM
  TGI: 12300 nM
OVCAR-8 ovarian
  GI50: 2090 nM
  TGI: 5680 nM
SK-MEL-5 melanoma
  GI50: 1650 nM
  TGI: 3210 nM
SW-620 colon
  GI50: 2370 nM
  TGI: 5720 nM
NCI-H226 lung
  GI50: 2680 nM
  TGI: 9120 nM
UACC-62 melanoma
  GI50: 1730 nM
  TGI: 3480 nM
OVCAR-3 ovarian
  GI50: 1710 nM
  TGI: 3100 nM
SNB-19 CNS
  GI50: 1930 nM
  TGI: 3960 nM
SK-MEL-28 melanoma
  GI50: 1960 nM
  TGI: 3600 nM
RPMI-8226 leukemia
  GI50: 1870 nM
  TGI: 4600 nM
SK-MEL-2 melanoma
  GI50: 2230 nM
  TGI: 4650 nM
A498 renal
  GI50: 1710 nM
  TGI: 3140 nM
SF-268 CNS
  GI50: 1860 nM
  TGI: 4090 nM
LOX IMVI melanoma
  GI50: 1670 nM
  TGI: 3160 nM
CAKI-1 renal
  GI50: 2270 nM
  TGI: 7290 nM
UO-31 renal
  GI50: 1470 nM
